# Measurements reported in US8932594B2, “Adjuvants and methods of use” (The Scripps Research Institute, priority 2006, dated 2015).
# Key:
# CD1d = target: T1, CD1d (Mus musculus, UniProt P11609); assay: Loading of CD1d molecules, native isoelectric focusing (IEF) gel assay; type: binding; conditions: 2 μM CD1d, 20 μM lipid, 1 hour at 37° C., no saposin B
# T1 sequence (P11609 19-297 limits assumed): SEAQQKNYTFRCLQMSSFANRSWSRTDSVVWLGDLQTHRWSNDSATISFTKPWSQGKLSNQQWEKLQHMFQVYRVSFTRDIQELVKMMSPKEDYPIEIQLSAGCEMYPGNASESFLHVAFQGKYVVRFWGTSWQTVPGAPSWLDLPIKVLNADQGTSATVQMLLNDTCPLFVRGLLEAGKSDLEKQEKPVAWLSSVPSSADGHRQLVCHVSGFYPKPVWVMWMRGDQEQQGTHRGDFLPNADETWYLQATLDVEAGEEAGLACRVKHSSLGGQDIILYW
# T1 sequence (P01887 21-119 partner): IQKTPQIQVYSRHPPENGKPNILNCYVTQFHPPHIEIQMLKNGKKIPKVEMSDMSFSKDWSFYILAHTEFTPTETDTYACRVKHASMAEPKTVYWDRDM
# Protocol: Whether PBS-31 and PBS-32 could be efficiently loaded onto CD1d molecules was tested using a native isoelectric focusing (IEF) gel assay in the presence and absence of saposin B. For comparison, PBS-41 and PBS-46 (sulfo-β-galactosylceramides), PBS-36 and PBS-58 (sulfo-α-glucosylceramides) and PBS-35 and PBS-40 (β-glucosylceramides) were also evaluated in this assay.
# Each 5 μl reaction contained 2 μM CD1d, 20 μM lipid and 10 μM saposin B. Reactions were incubated for 1 hour at 37° C. prior to gel loading.
# Loaded species are indicated by a star in FIG. 3. The lanes of FIG. 3 were loaded as follows: 1, no lipid; 2, αGalCer; 3, PBS-31; 4, PBS-32; 5, no lipid; 6, iGB3; 7, PBS-40; 8, PBS-41; 9, PBS-35; 10, PBS-46; 11, PBS-58; 12, PBS-25 (positive control).
# [1] = system: CD1d-restricted Vα14 NKT hybridoma cell, DN32.D3; assay: Stimulation of NKT hybridoma DN32.D3 by lipid-pulsed APCs, IL-2 release; type: cell-based, mice; conditions: for presentation by DCs isolated from CD1-TD mice: DCs with disrupted cytoplasmic tail of CD1d, data not shown; for presentation by splenocytes to DN32.D3 (IL-2 release): irradiated splenocytes, 24 hours
# Protocol: Compounds PBS-31, PBS-32, and control lipids were evaluated for their ability to stimulate a canonical CD1d-restricted Vα14 NKT hybridoma cell, DN32.D3 in an assay described by Lantz, et al., J. Exp. Med. 180: 1097-1106 (1994). Irradiated splenocytes were pulsed with decreasing concentrations of the lipids and control compounds, and incubated with DN32.D3 cells for 24 hours. Supernatants were harvested and IL-2 release was measured using a [^3H]-thymidine incorporation assay with an IL-2 dependent cell line as described by Cantu, et al., J. Immunol. 170:4673-4682 (2003).
# Similar results were obtained when mature DCs were used as the APCs (data not shown). […] Therefore, presentation of PBS-31 and PBS-32 and concomitant stimulation of NKT cells is dependent on lysosomal targeting of CD1d.
# human NKT cell line = assay: Activation of human NKT cell line, IL-4 and IFN-γ ELISA; type: cell-based; conditions: 24 hours incubation with PBLs or matured DCs
# Protocol: The agonistic activity of PBS-31 and PBS-32 was examined for human NKT cells. A human NKT cell line was stimulated with irradiated peripheral blood lymphocytes (PBLs) or in vitro matured DCs in the presence of PBS-31, PBS-32 and control lipid, iGB3. (Mattner et al., Nature 434: 525-529 (2005) incorporated herein by reference in its entirety.) After 24 hours incubation, supernatants were harvested and assayed for the presence of IL-4 and IFN-γ by ELISA.
# NKT cells = assay: Cytokine production by stimulated NKT cells (splenocytes), ELISA; type: cell-based; conditions: 24 hours incubation with splenocytes
# Protocol: NKT cells were stimulated with PBS-32 or control compounds presented by plate-bound CD1d, splenocytes or purified mature DCs. Production of IFN-γ, IL-4, IL-10 and GM-CSF was measured by ELISA. […] The control lipids (glucosyl and galactosyl) were negative in the same assays. Cytokine induction was CD1d-dependent because induction was blocked by anti-CD1d antibodies and no cytokine induction was observed when DCs from CD1d^−/− mice were used (data not shown).
# DN32.D3 cells = assay: DC-free assay: plate-coated murine CD1d, DN32.D3 cells, IL-2 production; type: cell-based; conditions: for requirement of processing by DCs for stimulation of NKT cells: plate-coated murine CD1d, with saposin B, 24 hours, data not shown
# Protocol: To determine whether presentation of PBS-31 and PBS-32 to NKT cells was dependent on processing by DCs, a DC-free assay was used in which murine CD1d was coated on 96 well plates. PBS-31, PBS-32 and control compounds were added at various concentrations in the presence and absence of saposin B. DN32.D3 cells were added and supernatants were harvested after 24 hours and production of IL-2 was measured.
# splenic DCs = assay: Induction of DC maturation in vivo, FACS of splenic cells; parameters: species or system mice; conditions: for DC phenotype (CD40, CD80, CD86, MHC class II expression): CD11c+/CD8+ and CD11c+/CD8− cells
# Protocol: Mice were injected with α-GalCer, PBS-31 and PBS-32 and DC differentiation was examined in splenic DCs by analyzing cell surface marker expression.
# Three mice in each group were injected intravenously with 1 μg lipid or vehicle alone. At 24 hours post-injection, CD1d expression was examined on splenic B cells (B220+), macrophages (CD11b+) and DCs (CD11c+) by FACS analysis using a FACScalibur machine and FlowJo analysis software.
# The maturation of DCs was analyzed by measuring expression of CD40, CD80, CD86, and MHC class II on CD11c^+/CD8^+ and CD11c^+/CD8^− cells (FIG. 8). […] PBS-32 and αGalCer reached maximal induction between 0.1 and 1 μg (data not shown).
# Induction of DC maturation was unaffected in MyD88^−/− and MyD88^−/−TRIF^−/− knock out animals in which the Toll-like receptor pathway is partially, or totally impaired, respectively (data not shown). The CD1d-dependence was confirmed by injecting CD1d^−/− mice with the lipids.
# C57BI/6 mice = assay: Serum cytokines after intravenous injection, ELISA; type: in vivo; conditions: 1 μg intravenous
# Protocol: In vivo, following intravenous injection of 1 μg of positive control compound, αGalCer, or PBS-32, IFN-γ production in the serum of C57BI/6 mice was measured by ELISA and was very similar for both compounds (2500 pg/ml and 1500 pg/ml at 24 hours, respectively). IL-4 was undetectable following PBS-32 injection. […] At eight hours post-injection, PBS-32 induced 600 pg/ml IFN-γ.
# [2] = system: lymphocytic choriomeningitis virus (LCMV); type: in vivo, C57BI/6 mice; conditions: 1 μg intravenous before 10^6 PFU LCMVArm, day 8 post-infection, intracellular IFN-γ
# [3] = system: murine Vα14 NKT cell line; assay: Lipid-loaded CD1d tetramer staining of NKT cell line, FACS; type: binding; conditions: lipid-loaded CD1d tetramers; data not shown
# Protocol: PBS-32-loaded CD1d tetramers, as well as control αGalCer tetramers, were prepared as described in Benlagha et al., J. Exp. Med. 191: 1895-1903 (2000) incorporated herein by reference in its entirety. The resulting tetramers were used to stain a murine Vα14 NKT cell line. After washing, the cells were analyzed on a FACSCalibur (BD Biosciences) using FlowJo software.
# [4] = system: ovalbumin-specific CD8+ T cell and IgG responses; assay: Adjuvant capability with ovalbumin antigen; type: in vivo, mice; conditions: for H-2Kb/ova257-264 tetramer positive cells in the CD8+ T cell pool: ovalbumin plus 1 μg lipid intravenous, peripheral blood, day 7 post-injection; for IgG anti-ovalbumin response: ovalbumin plus lipid, ELISA, compared to control group
# Protocol: The potential adjuvanticity of PBS-31 and PBS-32 combined with a nominal protein antigen, ovalbumin, was conducted following a protocol similar to that of Fujii et al., J. Exp. Med. 198: 267-279 (2003) and Hermans et al., J. Immunol. 171: 5140-5147 (2003), which are incorporated herein by reference in their entireties. Ovalbumin was injected intravenously either alone or in combination with 1 μg of PBS-31, PBS-32 or PBS-57. […] In the absence of working tetramers to follow MHC class II responses, only CD8+ responses and B cell responses were evaluated.
# CD8+ T cell responses were evaluated by enumerating the H-2K^b/ova257-264 tetramer positive cells in peripheral blood at 7 days post-injection and are expressed as the percentage H-2K^b/ova257-264 positive cells in the CD8+ T cell pool. At day 7 post-injection, antigen-specific H-2K^b/ova257-264 tetramer positive cells were increased to about 3% in the PBS-32 injected group whereas they expanded to almost 6% in the PBS-57 treated group (FIG. 9A). […] These strong IgG responses may indirectly reflect a significant boost of the ovalbumin-specific CD4+T helper compartment as well.
# When CD1d^−/− mice were injected following the same protocol, no increase in either anti-ovalbumin IgG or in the anti-ovalbumin CD8+ T cells were noted (data not shown).
# Vα14/2Cβ TCR = conditions: previously reported, Cantu et al. 2003; read-out: affinity of the TCR for CD1d-lipid complex; cited from earlier work
compound,measurement,setting,value
CCCCCCCCCCCCCC[C@@H](O)[C@@H](O)[C@H](CO[C@H]1O[C@H](CO)[C@H](O)[C@H](O)[C@H]1O)NC(=O)CCCCCCC [PBS-25],loading of CD1d in the absence of saposin B,CD1d,marginally loaded in the absence of saposin B
CCCCCCCCCCCCCCCCCCCCCCCCCC(=O)NC(COC1OC(CO)C(O)C(OS(=O)(=O)O)C1O)C(O)C(O)CCCCCCCCCCCCCC (centres unmarked) [PBS-31],presentation by DCs isolated from CD1-TD mice,[1],inefficient at presenting
same,presentation by splenocytes to DN32.D3 (IL-2 release),[1],efficiently presented
same,IFN-γ secretion,human NKT cell line,significantly less
same,IL-4 secretion,human NKT cell line,almost equivalent amounts
same,GM-CSF secretion,NKT cells,induced only GM-CSF
same,IFN-γ secretion,NKT cells,induced only GM-CSF
same,IL-4 secretion,NKT cells,induced only GM-CSF
same,IL-10 secretion,NKT cells,induced only GM-CSF
same,requirement of processing by DCs for stimulation of NKT cells,DN32.D3 cells,does not require processing by DCs
same,DC maturation effect relative to the other lipids,"splenic DCs; 1 μg intravenous, 24 hours",less pronounced effect
same,"DC phenotype (CD40, CD80, CD86, MHC class II expression)","splenic DCs; 1 μg intravenous, 24 hours",mature phenotype
same,lesser potency on DC maturation at increased doses,"splenic DCs; doses up to 50 μg per mouse, data not shown",could not be overcome
"CCCCCCCCCCCCC/C=C/[C@@H](O)[C@H](CO[C@@H]1O[C@H](CO)[C@@H](O)[C@H](OS(=O)(=O)O)[C@H]1O)NC(=O)CCCCCCCCCCCCCCCCCCCCCCCCC [PBS-32, sulfoglucosylceramide]",IL-4 in serum,C57BI/6 mice,undetectable
same,timing of IFN-γ production,C57BI/6 mice,earlier IFN-γ production than α-GalCer
same,IFN-γ production in the serum,C57BI/6 mice; at 24 hours,1500 pg/mL
same,IFN-γ production in the serum,C57BI/6 mice; eight hours post-injection,600 pg/mL
same,"anti-LCMV CD4+ T cell response (GP61, NP309)",[2],significant increase
same,"anti-LCMV CD8+ T cell response (GP33, NP396, GP276)",[2],did equally well
same,tetramer staining intensity,[3],less intense than for CD1d-αGalCer tetramers but homogenous
same,presentation by DCs isolated from CD1-TD mice,[1],inefficient at presenting
same,presentation by splenocytes to DN32.D3 (IL-2 release),[1],efficiently presented
same,IFN-γ secretion,human NKT cell line,able to induce
same,IL-4 secretion,human NKT cell line,almost equivalent amounts
same,GM-CSF secretion,NKT cells,induced secretion
same,IFN-γ secretion,NKT cells,induced secretion
same,IL-4 secretion,NKT cells,induced secretion
same,IL-10 secretion,NKT cells,not IL-10
same,adjuvant activity with purified protein antigen,[4]; in combination with ovalbumin,had adjuvant activity
same,H-2Kb/ova257-264 tetramer positive cells in the CD8+ T cell pool,[4],about 3%
same,IgG anti-ovalbumin response,[4],dramatically boosted
same,relative potency in IL-2 production,DN32.D3 cells,consistently more potent than phytoceramide PBS-31
same,requirement of processing by DCs for stimulation of NKT cells,DN32.D3 cells,does not require processing by DCs
same,"DC phenotype (CD40, CD80, CD86, MHC class II expression)","splenic DCs; 1 μg intravenous, 24 hours",mature phenotype
CCCCCCCCCCCCCCCCCCCCCCCCCC(=O)NC(COC1OC(CO)C(O)C(OS(=O)(=O)O)C1O)C(O)C(O)CCCCCCCCCCCCCC (centres unmarked) [PBS-36],loading of CD1d in the absence of saposin B,CD1d,loaded onto CD1d in the absence of saposin B
"CCCCCCCC/C=C\CCCCCCCCCCCCCC(=O)N[C@@H](CO[C@H]1O[C@H](CNC(C)=O)[C@H](O)[C@H](O)[C@H]1O)[C@H](O)[C@H](O)CCCCCCCCCCCCCC [PBS-57, reference compound]",H-2Kb/ova257-264 tetramer positive cells in the CD8+ T cell pool,[4],~6%
same,IgG anti-ovalbumin response,[4],dramatically boosted
CCCCCCCCCCCCC/C=C/[C@@H](O)[C@H](CO[C@H]1O[C@H](CO)[C@@H](O)[C@H](OS(=O)(=O)O)[C@H]1O)NC(=O)CCCCCCCCCCCCCCCCCCCCCCCCC [PBS-58],loading of CD1d in the absence of saposin B,CD1d,marginally loaded in the absence of saposin B
"CCCCCCCCCCCCCCCCCCCCCCCCCC(=O)N[C@@H](CO[C@H]1O[C@H](CO)[C@H](O)[C@H](O)[C@H]1O)[C@H](O)[C@H](O)CCCCCCCCCCCCCC [αGalCer, α-galactosylceramide, reference compound]",IFN-γ production in the serum,C57BI/6 mice; at 24 hours,2500 pg/mL
same,"anti-LCMV CD4+ T cell response (GP61, NP309)",[2],unchanged
same,"anti-LCMV CD8+ T cell response (GP33, NP396, GP276)",[2],significantly increase
same,Kd,Vα14/2Cβ TCR,30 nM
same,"DC phenotype (CD40, CD80, CD86, MHC class II expression)","splenic DCs; 1 μg intravenous, 24 hours",mature phenotype
"isoglobotrihexosylceramide [iGB3, reference compound]",IL-4 secretion,human NKT cell line,almost equivalent amounts
